Reference: ChEMBL document CHEMBL3045185, “Characterization of metabolites of fungicidal cymoxanil in a sensitive strain of Botrytis cinerea” (J Agric Food Chem, 2008)
In brackets after ≈: the same amount, converted by molar mass.

Assays:
Botrytis cinerea = assay: Fungicidal activity against drug sensitive Botryotinia fuckeliana assessed as inhibition of germ tube elongation; assay type: functional, organism-based
[1] = Half life in soil assessed as compound degradation through hydrolysis and microbial degradation
[2] = Half life in drug sensitive Botryotinia fuckeliana cultures; conditions: botrytis cinerea, in vivo
[3] = Botrytis cinerea, read-out: EC50

Question: For `CC(=O)NC(C#N)C(=O)O` (configuration not stated), which EC50 (Botrytis cinerea; [3]) is on record?
Answer: Its EC50 is 0.025 mg/L (≈ 0.176 µM).

Question: Which EC50 (Botrytis cinerea) does the source give for `CCNC(=O)N1C(=O)C(C#N)=NC1(C)C` here?
Answer: The EC50 was “Not Active”.

Question: With `CCN1C(=O)NC(=O)C1=O` as the molecule, how does the EC50 (Botrytis cinerea) read?
Answer: The EC50 was “Not Active”.

Question: For `CCN1C(=O)NC(=O)/C1=N/OC`, which EC50 (Botrytis cinerea) is on record?
Answer: Its EC50 is “Not Active”.

Question: With `CCNC(=O)NC(=O)/C(C#N)=N/OC` [CYMOXANIL] as the molecule, how does the half-life [1] read?
Answer: The half-life was less than 48 h.

Question: And the half-life [2]?
Answer: Its half-life is no more than 2 h.

Question: And the EC50 (Botrytis cinerea; [3])?
Answer: The EC50 was 0.25 mg/L (≈ 1.26 µM).
